Data published in ChEMBL document CHEMBL1142252, “Identification of aminopyrazolopyridine ureas as potent VEGFR/PDGFR multitargeted kinase inhibitors” (Bioorg Med Chem Lett, 2008).
≈ marks a conversion by molar mass, not a printed value. Each block holds one compound with its values, some of them ahead of it.

Assays:
[1] = test system: Mus musculus; assay: Inhibition of estradiol-induced uterine edema in mouse at 10 mg/kg, po; settings: read-out: Inhibition
[2] = Aqueous solubility at pH 7.2; type: physicochemical; settings: buffer
[3] = Oral bioavailability in mouse at 10 mg/kg; type: ADME, organism-based; settings: in vivo
[4] = AUC in mouse at 10 mg/kg, po; type: ADME, organism-based; design: dose 10 mg/kg, route oral; settings: plasma
[5] = Clearance in mouse at 3 mg/kg, iv; type: ADME, organism-based; design: dose 3 mg/kg, route intravenous; settings: in vivo
[6] = Half life in mouse at 3 mg/kg, iv; type: ADME, organism-based; design: dose 3 mg/kg, route intravenous; settings: in vivo
[7] = Volume of distribution in mouse at 3 mg/kg, iv; type: ADME, organism-based; design: dose 3 mg/kg, route intravenous; settings: in vivo
[8] = biological target: Macrophage colony-stimulating factor 1 receptor (Homo sapiens, UniProt P07333); assay: Inhibition of CSF1R by HTRF assay
Chain of Macrophage colony-stimulating factor 1 receptor (P07333 whole entry): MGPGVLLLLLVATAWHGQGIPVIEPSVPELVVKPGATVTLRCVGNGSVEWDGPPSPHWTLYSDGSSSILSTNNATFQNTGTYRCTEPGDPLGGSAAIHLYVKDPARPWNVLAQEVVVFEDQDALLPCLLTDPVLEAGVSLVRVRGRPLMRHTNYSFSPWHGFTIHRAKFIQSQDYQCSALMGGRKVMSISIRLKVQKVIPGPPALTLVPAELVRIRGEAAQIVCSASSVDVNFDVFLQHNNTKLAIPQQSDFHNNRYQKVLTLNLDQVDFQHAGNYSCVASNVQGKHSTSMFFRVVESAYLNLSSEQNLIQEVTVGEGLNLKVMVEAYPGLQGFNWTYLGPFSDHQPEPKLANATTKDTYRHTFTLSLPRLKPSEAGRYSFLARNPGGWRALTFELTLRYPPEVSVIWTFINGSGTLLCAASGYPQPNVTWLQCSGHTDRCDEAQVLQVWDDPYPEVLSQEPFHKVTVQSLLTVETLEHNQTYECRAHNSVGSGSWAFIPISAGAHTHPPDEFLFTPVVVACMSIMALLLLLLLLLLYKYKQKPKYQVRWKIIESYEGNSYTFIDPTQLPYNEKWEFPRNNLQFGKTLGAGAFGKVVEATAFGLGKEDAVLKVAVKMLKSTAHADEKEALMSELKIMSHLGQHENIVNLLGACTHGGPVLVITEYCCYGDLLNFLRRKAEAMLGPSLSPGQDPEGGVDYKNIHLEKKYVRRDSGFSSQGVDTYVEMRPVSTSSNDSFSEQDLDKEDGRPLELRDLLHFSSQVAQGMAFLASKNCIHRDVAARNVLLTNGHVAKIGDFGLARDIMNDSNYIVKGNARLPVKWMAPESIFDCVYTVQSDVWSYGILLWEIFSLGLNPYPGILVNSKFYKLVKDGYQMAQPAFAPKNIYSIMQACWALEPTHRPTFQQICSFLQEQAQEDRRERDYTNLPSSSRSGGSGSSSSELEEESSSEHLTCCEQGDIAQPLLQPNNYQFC

[9] = biological target: Tyrosine-protein kinase Fyn (Homo sapiens, UniProt P06241); assay: Inhibition of FYN by HTRF assay
Chain of Tyrosine-protein kinase Fyn (P06241 whole entry): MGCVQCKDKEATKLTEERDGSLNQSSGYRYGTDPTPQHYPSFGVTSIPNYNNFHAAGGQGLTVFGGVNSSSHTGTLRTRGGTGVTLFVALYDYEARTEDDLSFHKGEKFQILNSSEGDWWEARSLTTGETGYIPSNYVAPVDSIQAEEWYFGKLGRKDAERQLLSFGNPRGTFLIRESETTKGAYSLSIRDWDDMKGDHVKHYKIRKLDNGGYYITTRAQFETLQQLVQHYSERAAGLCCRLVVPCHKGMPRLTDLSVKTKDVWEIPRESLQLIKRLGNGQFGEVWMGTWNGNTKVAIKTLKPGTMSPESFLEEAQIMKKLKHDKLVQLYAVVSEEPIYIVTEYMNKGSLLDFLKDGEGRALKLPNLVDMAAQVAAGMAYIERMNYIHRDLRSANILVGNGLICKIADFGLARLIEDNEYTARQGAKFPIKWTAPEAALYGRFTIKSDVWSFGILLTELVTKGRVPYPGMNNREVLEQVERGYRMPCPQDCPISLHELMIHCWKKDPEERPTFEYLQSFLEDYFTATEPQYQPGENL

[10] = biological target: Mast/stem cell growth factor receptor Kit (Homo sapiens, UniProt P10721); assay: Inhibition of cKit by HTRF assay
Chain of Mast/stem cell growth factor receptor Kit (P10721 whole entry): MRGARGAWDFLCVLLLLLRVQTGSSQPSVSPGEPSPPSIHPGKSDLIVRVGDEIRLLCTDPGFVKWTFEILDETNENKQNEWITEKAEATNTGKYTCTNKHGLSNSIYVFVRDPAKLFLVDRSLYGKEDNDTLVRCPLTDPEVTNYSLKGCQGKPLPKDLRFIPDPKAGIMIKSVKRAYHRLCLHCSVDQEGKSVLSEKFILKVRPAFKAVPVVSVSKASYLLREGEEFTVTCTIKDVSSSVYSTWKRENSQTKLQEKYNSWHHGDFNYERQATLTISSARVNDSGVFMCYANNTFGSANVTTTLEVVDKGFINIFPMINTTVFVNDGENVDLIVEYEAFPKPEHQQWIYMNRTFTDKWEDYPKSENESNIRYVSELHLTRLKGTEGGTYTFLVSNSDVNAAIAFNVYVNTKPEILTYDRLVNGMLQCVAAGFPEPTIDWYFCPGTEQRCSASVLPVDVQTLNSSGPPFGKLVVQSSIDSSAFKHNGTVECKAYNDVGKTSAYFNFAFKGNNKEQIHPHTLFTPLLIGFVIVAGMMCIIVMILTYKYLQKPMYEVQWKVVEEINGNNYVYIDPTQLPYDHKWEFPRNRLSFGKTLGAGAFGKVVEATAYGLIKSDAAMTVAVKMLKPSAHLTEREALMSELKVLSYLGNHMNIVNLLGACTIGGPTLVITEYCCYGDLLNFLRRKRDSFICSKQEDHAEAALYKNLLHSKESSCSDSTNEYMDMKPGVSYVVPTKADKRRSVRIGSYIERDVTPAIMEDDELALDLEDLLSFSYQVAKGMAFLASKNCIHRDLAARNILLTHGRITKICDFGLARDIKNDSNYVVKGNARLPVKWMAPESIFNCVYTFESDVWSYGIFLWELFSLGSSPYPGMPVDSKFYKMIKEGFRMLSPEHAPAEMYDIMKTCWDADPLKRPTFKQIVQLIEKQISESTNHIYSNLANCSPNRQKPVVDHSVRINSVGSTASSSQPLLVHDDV

[11] = biological target: T1, Receptor-type tyrosine-protein kinase FLT3 (Homo sapiens, UniProt P36888); assay: Inhibition of FLT3 by HTRF assay
T1 sequence (P36888 whole entry): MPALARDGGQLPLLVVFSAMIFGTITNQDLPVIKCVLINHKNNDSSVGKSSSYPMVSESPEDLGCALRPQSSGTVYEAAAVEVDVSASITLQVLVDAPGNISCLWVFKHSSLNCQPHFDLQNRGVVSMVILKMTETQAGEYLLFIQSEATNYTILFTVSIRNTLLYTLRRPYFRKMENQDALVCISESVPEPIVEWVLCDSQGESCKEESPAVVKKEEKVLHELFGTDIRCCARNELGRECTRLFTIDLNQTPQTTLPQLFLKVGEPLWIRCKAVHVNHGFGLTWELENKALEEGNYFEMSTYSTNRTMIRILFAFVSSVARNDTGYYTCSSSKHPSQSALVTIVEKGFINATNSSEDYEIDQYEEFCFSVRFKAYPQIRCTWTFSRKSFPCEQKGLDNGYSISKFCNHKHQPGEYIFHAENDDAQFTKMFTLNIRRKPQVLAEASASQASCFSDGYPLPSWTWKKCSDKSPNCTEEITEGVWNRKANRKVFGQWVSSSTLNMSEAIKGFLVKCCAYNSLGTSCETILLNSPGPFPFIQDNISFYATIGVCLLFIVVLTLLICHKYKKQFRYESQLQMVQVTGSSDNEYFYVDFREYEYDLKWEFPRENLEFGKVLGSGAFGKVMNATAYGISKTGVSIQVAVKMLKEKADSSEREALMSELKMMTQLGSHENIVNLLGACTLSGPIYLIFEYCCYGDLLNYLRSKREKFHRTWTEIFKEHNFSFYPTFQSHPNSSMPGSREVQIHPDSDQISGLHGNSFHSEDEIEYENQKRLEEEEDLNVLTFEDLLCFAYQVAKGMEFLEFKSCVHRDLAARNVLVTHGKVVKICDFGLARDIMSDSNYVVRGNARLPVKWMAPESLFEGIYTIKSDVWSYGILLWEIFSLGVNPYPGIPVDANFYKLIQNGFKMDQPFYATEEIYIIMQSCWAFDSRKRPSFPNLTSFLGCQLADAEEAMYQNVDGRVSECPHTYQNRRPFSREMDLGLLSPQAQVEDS

[12] = biological target: Vascular endothelial growth factor receptor 1 (Homo sapiens, UniProt P17948); assay: Inhibition of FLT1 by HTRF assay
[13] = biological target: T2, Vascular endothelial growth factor receptor 2 (Homo sapiens, UniProt P35968)
T2 sequence (P35968 whole entry): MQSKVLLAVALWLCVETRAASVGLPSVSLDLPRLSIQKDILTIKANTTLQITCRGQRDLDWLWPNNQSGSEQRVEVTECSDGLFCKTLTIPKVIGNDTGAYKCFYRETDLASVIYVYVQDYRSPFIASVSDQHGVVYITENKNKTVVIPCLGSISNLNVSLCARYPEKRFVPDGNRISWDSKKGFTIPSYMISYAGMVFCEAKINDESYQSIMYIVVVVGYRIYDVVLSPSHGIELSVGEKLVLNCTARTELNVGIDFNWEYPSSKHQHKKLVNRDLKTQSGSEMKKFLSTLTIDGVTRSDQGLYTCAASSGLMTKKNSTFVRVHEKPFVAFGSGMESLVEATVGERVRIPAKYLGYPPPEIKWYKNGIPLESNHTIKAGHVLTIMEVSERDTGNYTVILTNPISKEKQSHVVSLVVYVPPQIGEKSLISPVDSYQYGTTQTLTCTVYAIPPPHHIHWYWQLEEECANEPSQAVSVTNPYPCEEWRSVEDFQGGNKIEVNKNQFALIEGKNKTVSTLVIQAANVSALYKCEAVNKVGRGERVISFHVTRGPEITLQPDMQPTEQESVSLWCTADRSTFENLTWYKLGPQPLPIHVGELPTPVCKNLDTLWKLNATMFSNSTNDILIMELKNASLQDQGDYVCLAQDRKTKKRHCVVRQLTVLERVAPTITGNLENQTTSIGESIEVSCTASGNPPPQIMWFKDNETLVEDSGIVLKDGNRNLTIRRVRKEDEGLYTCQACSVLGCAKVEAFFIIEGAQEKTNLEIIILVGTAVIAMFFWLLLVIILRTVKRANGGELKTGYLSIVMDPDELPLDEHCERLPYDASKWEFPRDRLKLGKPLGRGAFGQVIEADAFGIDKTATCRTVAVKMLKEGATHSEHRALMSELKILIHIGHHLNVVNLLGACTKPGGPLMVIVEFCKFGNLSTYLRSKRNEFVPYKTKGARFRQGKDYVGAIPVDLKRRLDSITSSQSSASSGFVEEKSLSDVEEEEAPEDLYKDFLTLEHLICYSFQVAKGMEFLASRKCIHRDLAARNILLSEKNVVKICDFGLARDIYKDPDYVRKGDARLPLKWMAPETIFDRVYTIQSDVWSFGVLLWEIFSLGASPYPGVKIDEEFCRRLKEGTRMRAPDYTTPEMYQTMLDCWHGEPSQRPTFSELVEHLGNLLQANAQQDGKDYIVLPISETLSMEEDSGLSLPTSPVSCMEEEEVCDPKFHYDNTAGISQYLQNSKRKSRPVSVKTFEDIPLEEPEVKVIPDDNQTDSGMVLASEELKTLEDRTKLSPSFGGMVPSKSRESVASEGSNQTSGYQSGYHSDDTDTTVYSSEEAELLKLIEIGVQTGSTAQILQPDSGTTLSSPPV
Description: Inhibition of KDR by HTRF assay

[14] = biological target: T2, Vascular endothelial growth factor receptor 2; remark: listed apart in the source
Description: Inhibition of VEGF-induced human KDR phosphorylation in mouse 3T3 cells

Compound: Cc1cc(C)cc(NC(=O)Nc2ccc(-c3ccnc4[nH]nc(N)c34)cc2)c1
inhibition in vivo at 10 mg/kg [1]: 77%

solubility [2]: 5.8 µM (≈ 2.18 µg/mL)
Compound: Cc1ccc(F)c(NC(=O)Nc2ccc(-c3cncc4[nH]nc(N)c34)cc2)c1
inhibition in vivo at 10 mg/kg [1]: 98%

Compound: Cc1ccc(NC(=O)Nc2ccc(-c3ccnc4[nH]nc(N)c34)cc2)cc1
inhibition in vivo at 10 mg/kg [1]: < 5%

Compound: Cn1nc(N)c2c(-c3ccc(NC(=O)Nc4ccc(F)c(C(F)(F)F)c4)cc3)cncc21
inhibition in vivo at 10 mg/kg [1]: 59%

Compound: Nc1n[nH]c2cncc(-c3ccc(NC(=O)Nc4cccc(Cl)c4)cc3)c12
inhibition in vivo at 10 mg/kg [1]: < 5%

Compound: Cn1nc(N)c2c(-c3ccc(NC(=O)Nc4cccc(Cl)c4)cc3)cncc21
inhibition in vivo at 10 mg/kg [1]: 52%

bioavailability [3]: 9%
AUC [4]: 0.89 µM·h
clearance [5]: 2.62 L/h/kg
half-life [6]: 27 min
Vd [7]: 1.71 L/kg
Compound: Cc1cc(C)cc(NC(=O)Nc2ccc(-c3nccc4[nH]nc(N)c34)cc2)c1
inhibition in vivo at 10 mg/kg [1]: < 5%

Compound: Nc1n[nH]c2nccc(-c3ccc(NC(=O)Nc4ccc(F)c(Cl)c4)cc3)c12
inhibition in vivo at 10 mg/kg [1]: 55%

Compound: Nc1n[nH]c2ccnc(-c3ccc(NC(=O)Nc4cccc(C(F)(F)F)c4)cc3)c12
inhibition in vivo at 10 mg/kg [1]: < 5%

solubility [2]: 9.5 µM (≈ 3.58 µg/mL)
Compound: Cc1ccc(F)c(NC(=O)Nc2ccc(-c3nccc4[nH]nc(N)c34)cc2)c1
inhibition in vivo at 10 mg/kg [1]: < 5%

Compound: Nc1n[nH]c2nccc(-c3ccc(NC(=O)Nc4cccc(C(F)(F)F)c4)cc3)c12
IC50 [8]: 3 nM
IC50 [9]: 11800 nM
IC50 [10]: 7 nM
IC50 [11]: 2 nM
IC50 [12]: 5 nM

bioavailability [3]: 62%
AUC [4]: 15.7 µM·h
clearance [5]: 1.04 L/h/kg
half-life [6]: 60 min
Vd [7]: 1.5 L/kg
Compound: Cc1ccc(F)c(NC(=O)Nc2ccc(-c3ccnc4[nH]nc(N)c34)cc2)c1
inhibition in vivo at 10 mg/kg [1]: 66%

Compound: Cc1cc(NC(=O)Nc2ccc(-c3ccnc4[nH]nc(N)c34)cc2)ccc1F
inhibition in vivo at 10 mg/kg [1]: 108%

Compound: Nc1n[nH]c2nccc(-c3ccc(NC(=O)Nc4ccccc4)cc3)c12
inhibition in vivo at 10 mg/kg [1]: 39%

Compound: Cc1cccc(NC(=O)Nc2ccc(-c3cncc4[nH]nc(N)c34)cc2)c1
inhibition in vivo at 10 mg/kg [1]: 50%

Compound: Nc1n[nH]c2cncc(-c3ccc(NC(=O)Nc4cc(C(F)(F)F)ccc4F)cc3)c12
inhibition in vivo at 10 mg/kg [1]: 35%

solubility [2]: 1.6 µM (≈ 0.606 µg/mL)
Compound: Nc1n[nH]c2nccc(-c3ccc(NC(=O)Nc4cccc(Cl)c4)cc3)c12
inhibition in vivo at 10 mg/kg [1]: 23%

Compound: Cc1cc(NC(=O)Nc2ccc(-c3cncc4[nH]nc(N)c34)cc2)ccc1F
inhibition in vivo at 10 mg/kg [1]: 19%

bioavailability [3]: 71%
AUC [4]: 25 µM·h
clearance [5]: 0.762 L/h/kg
half-life [6]: 36 min
Vd [7]: 0.66 L/kg
Compound: Cc1cccc(NC(=O)Nc2ccc(-c3cncc4c3c(N)nn4C)cc2)c1
inhibition in vivo at 10 mg/kg [1]: 79%

IC50 [13]: 7.7 nM
bioavailability [3]: 81%
AUC [4]: 30.2 µM·h
IC50 [14]: 3 nM
clearance [5]: 0.69 L/h/kg
half-life [6]: 90 min
Vd [7]: 1.48 L/kg
Compound: Cc1ccc(F)c(NC(=O)Nc2ccc(-c3cncc4c3c(N)nn4C)cc2)c1
inhibition in vivo at 10 mg/kg [1]: 72%

solubility [2]: 0.07 µM (≈ 0.0263 µg/mL)
Compound: Cc1ccc(F)c(NC(=O)Nc2ccc(-c3cccc4[nH]nc(N)c34)cc2)c1 [LINIFANIB]

Compound: Cc1cc(NC(=O)Nc2ccc(-c3nccc4[nH]nc(N)c34)cc2)ccc1F
inhibition in vivo at 10 mg/kg [1]: < 5%

IC50 [13]: 35 nM
IC50 [14]: 2.2 nM
Compound: Cc1ccccc1NC(=O)Nc1ccc(-c2ccnc3[nH]nc(N)c23)cc1
inhibition in vivo at 10 mg/kg [1]: < 5%
